Patent publication US20130102493A1, “GENE EXPRESSION ANALYSES FOR CHARACTERIZING AND IDENTIFYING GENOTOXIC COMPOUNDS” (MERCK PATENT GESELLSCHAFT MIT BESCHRANKTER HAFTUNG, priority 2010, published 2013)
Read-outs that look alike come from different tables or passages of the source. Marks after values point to notes of the source that are not given here. *1 amine or outer side, *2 acyl side, *3 side chain or, on linkers, in order; H or OH if unused. Where a SMILES comes first, the peptide text is derived from it. Bridges are numbered along the chain shown (N, C = ends). Roman numbers before positions name the chains, in order. [ ]: non-standard residue; d: D form. Actinocin(9to1) = Cc1c2oc3c(C)ccc(C(=O)[*:1])c3nc-2c(C(=O)[*:2])c(N)c1=O; NMeV = CN[C@H](C(=O)O)C(C)C; Sar = CNCC(=O)O

How the values were obtained:
[1] = system: HepG2 cells
[2] = system: HepG2 cells; remark: listed apart in the source
[3] = system: HepG2 cells; remark: listed apart in the source
[4] = system: CYP competent primary hepatocytes; details: cited from earlier work

## Cc1c2oc3c(C)ccc(C(=O)N[C@@H]4C(=O)N[C@H](C(C)C)C(=O)N5CCC[C@H]5C(=O)N(C)CC(=O)N(C)[C@@H](C(C)C)C(=O)O[C@@H]4C)c3nc-2c(C(=O)N[C@@H]2C(=O)N[C@H](C(C)C)C(=O)N3CCC[C@H]3C(=O)N(C)CC(=O)N(C)[C@@H](C(C)C)C(=O)O[C@@H]2C)c(N)c1=O [ACT, actinomycin D] (I: T[dV]P[Sar][NMeV] / II: T[dV]P[Sar][NMeV]; ester I:1-I:C, II:1-II:C; linker I:N-II:N via Actinocin(9to1))
[1]
  MYC gene regulation: down-regulated
  RNA polymerase II gene regulation: down-regulation
  topoisomerase II (TOPO2) gene regulation: down-regulation
[1]; ACT 250 nM, without S9, 48 h
  CDKN1A gene regulation relative to vehicle/S9 control: −1.15 fold
  CRABP2 gene regulation relative to vehicle/S9 control: 2.82* fold
  EMP1 gene regulation relative to vehicle/S9 control: 1.91* fold
  EMP3 gene regulation relative to vehicle/S9 control: 5.68* fold
  IER5 gene regulation relative to vehicle/S9 control: 3.07* fold
  LGALS7 gene regulation relative to vehicle/S9 control: 1.69* fold
  PLAU gene regulation relative to vehicle/S9 control: 3.69* fold
  PROCR gene regulation relative to vehicle/S9 control: 2.58* fold
[2]; 250 nM, 24 h, without S9
  Categorization: genotoxic
[2]; 250 nM, 48 h, without S9
  Categorization: genotoxic

## O=P1(N(CCCl)CCCl)NCCCO1 (centres unmarked) [CPA, cyclophosphamide]
[1]
  EGR1 gene regulation: up-regulation
  gene expression changes, single compound analysis vs vehicle controls: extremely weak or no statistically significant

## CCN(CC)N=O [DEN, N-nitrosodiethylamine]
[3]; with S9 (MAS)
  classification by 91 gene-classifier: genotoxic
[3]; without S9
  classification by 91 gene-classifier: non-genotoxic
[1]
  EGR1 gene regulation: up-regulation
  number of down-regulated genes: 57
  number of up-regulated genes: 88
[1]; DEN 25 mM, +S9, 48 h
  CDKN1A gene regulation relative to vehicle/S9 control: 1.95* fold
  CRABP2 gene regulation relative to vehicle/S9 control: 2.09* fold
  EMP1 gene regulation relative to vehicle/S9 control: 1.84* fold
  EMP3 gene regulation relative to vehicle/S9 control: 2.26* fold
  IER5 gene regulation relative to vehicle/S9 control: 1.50* fold
  LGALS7 gene regulation relative to vehicle/S9 control: 1.77 fold
  PLAU gene regulation relative to vehicle/S9 control: 1.84 fold
  PROCR gene regulation relative to vehicle/S9 control: 1.76* fold
[1]; DEN 25 mM, without S9, 48 h
  CDKN1A gene regulation relative to vehicle/S9 control: −1.19 fold
  CRABP2 gene regulation relative to vehicle/S9 control: 1.54* fold
  EMP1 gene regulation relative to vehicle/S9 control: 1.61* fold
  EMP3 gene regulation relative to vehicle/S9 control: 1.04 fold
  IER5 gene regulation relative to vehicle/S9 control: 1.06 fold
  LGALS7 gene regulation relative to vehicle/S9 control: 1.11 fold
  PLAU gene regulation relative to vehicle/S9 control: 1.86* fold
  PROCR gene regulation relative to vehicle/S9 control: 1.30 fold
[1]; DEN 50 mM, +S9, 48 h
  CDKN1A gene regulation relative to vehicle/S9 control: 2.20* fold
  CRABP2 gene regulation relative to vehicle/S9 control: 1.80* fold
  EMP1 gene regulation relative to vehicle/S9 control: 2.09* fold
  EMP3 gene regulation relative to vehicle/S9 control: 2.03* fold
  IER5 gene regulation relative to vehicle/S9 control: 1.51 fold
  LGALS7 gene regulation relative to vehicle/S9 control: 1.97* fold
  PLAU gene regulation relative to vehicle/S9 control: 1.59* fold
  PROCR gene regulation relative to vehicle/S9 control: 1.63* fold
[1]; DEN 50 mM, without S9, 48 h
  CDKN1A gene regulation relative to vehicle/S9 control: −1.48* fold
  CRABP2 gene regulation relative to vehicle/S9 control: 1.40 fold
  EMP1 gene regulation relative to vehicle/S9 control: 1.37 fold
  EMP3 gene regulation relative to vehicle/S9 control: 1.02 fold
  IER5 gene regulation relative to vehicle/S9 control: 1.03 fold
  LGALS7 gene regulation relative to vehicle/S9 control: 1.23* fold
  PLAU gene regulation relative to vehicle/S9 control: 1.44 fold
  PROCR gene regulation relative to vehicle/S9 control: 1.20 fold
[4]
  concentrations giving a positive response: 10000 to 32000 µM

## Cc1c2ccccc2c(C)c2c1ccc1ccccc12 [DMBA, 7,12-dimethylbenz[a]anthracene]
[3]; 75 μM w/o S9
  prediction using the 91 top-scored genes: predicted correctly
[1]; DMBA 10 μM w/o S9
  gene expression changes, single compound analysis vs vehicle controls: extremely weak or no statistically significant
[1]; DMBA 10 μM, +S9, 48 h
  CDKN1A gene regulation relative to vehicle/S9 control: 3.18* fold
  CRABP2 gene regulation relative to vehicle/S9 control: 2.31* fold
  EMP1 gene regulation relative to vehicle/S9 control: 1.93* fold
  EMP3 gene regulation relative to vehicle/S9 control: 2.61* fold
  IER5 gene regulation relative to vehicle/S9 control: 1.83* fold
  LGALS7 gene regulation relative to vehicle/S9 control: 1.93* fold
  PLAU gene regulation relative to vehicle/S9 control: 2.13* fold
  PROCR gene regulation relative to vehicle/S9 control: 2.26* fold
[1]; DMBA 10 μM, without S9, 48 h
  CDKN1A gene regulation relative to vehicle/S9 control: 1.36 fold
  CRABP2 gene regulation relative to vehicle/S9 control: 1.10 fold
  EMP1 gene regulation relative to vehicle/S9 control: 1.11 fold
  EMP3 gene regulation relative to vehicle/S9 control: 1.18 fold
  IER5 gene regulation relative to vehicle/S9 control: 1.30* fold
  LGALS7 gene regulation relative to vehicle/S9 control: 1.25* fold
  PLAU gene regulation relative to vehicle/S9 control: 1.29* fold
  PROCR gene regulation relative to vehicle/S9 control: 1.18 fold
[1]; DMBA 75 μM w/o S9
  regulation of the 91 genes: relatively weak
[1]; DMBA 75 μM, without S9, 48 h
  CDKN1A gene regulation relative to vehicle/S9 control: 1.50* fold
  CRABP2 gene regulation relative to vehicle/S9 control: 1.27 fold
  EMP1 gene regulation relative to vehicle/S9 control: 1.31 fold
  EMP3 gene regulation relative to vehicle/S9 control: 1.38* fold
  IER5 gene regulation relative to vehicle/S9 control: 1.26* fold
  LGALS7 gene regulation relative to vehicle/S9 control: 1.26 fold
  PLAU gene regulation relative to vehicle/S9 control: 1.53* fold
  PROCR gene regulation relative to vehicle/S9 control: 1.32* fold
[2]; 10 μM, 48 h, with S9
  Categorization: genotoxic
[2]; 75 μM, 48 h, without S9
  Categorization: genotoxic^#
[2]; DMBA 10 μM, 48 h, without S9
  Categorization: non-genotoxic

## COS(C)(=O)=O [MMS, methyl methanesulfonate]
[1]
  EGR1 gene regulation: up-regulation
  MYC gene regulation: down-regulated
[1]; after 24 h and 48 h treatment
  AP endonuclease 2 (APEX2) gene regulation: up-regulated
[1]; after 48 h exposure
  β-polymerase (POLB) gene regulation: up-regulated

## aflatoxin B1 [AFB1]
[1]
  EGR1 gene regulation: up-regulation
  gene expression changes, single compound analysis vs vehicle controls: extremely weak or no statistically significant
